Data as given in patent publication US5047242A, “Azadirachtin derivative insecticides” (Native Plant Institute ("NPI"), priority 1987, dated 1991).
≈ marks a conversion by molar mass, not a printed value. Entries after “also recorded” stand apart in the source; their conditions may differ. Like-named read-outs stand apart in the source and are kept apart here. Blank lines part the entries; values can stand above or below the compound they belong to.

Assays:
Heliothis virescens [1] = assay: Artificial diet feeding bioassay, mortality and growth inhibition in first-instar larvae; format: in vivo, Heliothis virescens (tobacco budworm); details: for insecticidal activity (in words): Heliothis virescens feeding; for EC50 (concentration causing 50% growth inhibition): Table 1, first-instar Heliothis virescens larvae, parentheses = 95% confidence limits; for EC50 (concentration causing 50% growth inhibition) / EC50: artificial diet; for LC50: Heliothis virescens, po; for EC50: Table 5, larval growth reduced to 50% of control, first instar Heliothis virescens, 95% confidence limits
From the text: The results of the growth inhibitory and lethal activities of azadirachtin and these 8 derivatives when fed in an artificial diet to Heliothis virescens larvae are shown in Table 1. Similar to the results of Morgan, E. D., in "Natural pesticides from the Neem tree (Azadirachta indica A. Juss), Schmutterer, H., et al., Eds., Proc. First International Neem Conference (Rottach-Egern, 1980), German Agency for Technical Corporation,Eschborn, Germany, 1982, pps. 43-52 (hereinafter "Morgan"), neither deacetylation nor hydrogenation of the carbon-carbon double bond of the dihydrofuran ring moiety of azadirachtin had any significant effect on activity of the compound against H. virescens.
Mortality and growth inhibition in first-instar Heliothis
virescens larvae fed azadirachtin and eight derivatives in an
artificial diet (I. Kubo and J. A. Klocke, In: Plant Resistance to
Insects (P. A. Helin, Ed.), ACS Symposium Series 208, American Chemical
Society, Washington, D.C. (1983), pp. 329-346.).^a
^b LC50 values are the concentrations (ppm) causing 50%
^c EC50 values are the concentrations (ppm) causing 50% growth
^d Numbers in parentheses are the 95% confidence limits determined
using the methods of Litchfield and Wilcoxon, J. Pharmacol. Exp. Ther.
An artificial diet feeding bioassay with neonate larvae of tobacco budworm (Heliothis virescens) and fall armyworm (Spodoptera frugiperda) was used as previously described (Kubo and Klocke, 1983) to detect insecticidal activities in the plant extracts to monitor fractionation, and to determine the potency of the isolated constituents and derivatives. Potency was determined either as the effective concentration (EC50) of added material that is necessary to reduce larval growth to 50% of the control values or as the lethal concentration (LC50) of added material that is necessary to kill 50% of the treated larvae. EC50 and LC50 values were determined from log probit paper and analyzed statistically by the method of Litchfield and Wilcoxon, supra.

Heliothis virescens [2] = assay: Oral injection of fifth-instar larvae, pupal and adult development (non-irradiated compounds); format: in vivo
Method: (§1) Individual larvae were injected per os on the first day of the fifth instar with 1.0 μg of either irradiated or non-irradiated compounds dissolved in 1.0 μl of 75% aqueous ethanol.
Table 2: Successful and unsuccessful pupal and adult development of
fifthinstar Heliothis Virescens larvae injected orally with 1.0 microgram
of either azadirachtin, 3deacetylazadirachtin, 22,23dihydroazadirachtin,
or 2',3',22,23tetrahydroazadirachtin.

Heliothis virescens [3] = assay: Relative activity of UV-irradiated compounds in inhibiting pupal development of fifth-instar larvae; format: in vivo; details: for Relative activity, inhibition of pupal development: relative to non-irradiated counterpart
Method: (§2) Azadirachtin, 3-deacetylazadirachtin, 22,23-dihydroazadirachtin, and 2',3',22,23-tetrahydroazadirachtin (1.0 mg/ml absolute ethanol) were placed individually in capped quartz NMR tubes (5×180 mm) and were irradiated with two UV germicidal lights (GE, G30T8, 200-280 nm, 30W) 1.8 m from the source at room temperature for up to 400 h. The controls were identical samples protected from exposure to UV radiation by wrapping with aluminum foil. At selected time intervals, aliquots from both the controls (non-irradiated) and irradiated samples were removed for high-performance liquid chromatography (HPLC) analysis and bioassay (vide infra).
as §1
Table 3: Relative activity of azadirachtin, 3deacetylaza-dirachtin,
22,23dihydroazadirachtin, and 2',3',22,23tetrahydroazadirachtin, all of
which had been exposed for 15, 30, 90, 200, and 400 hours to UV radiation
inhibiting the pupal development of fifthinstar Heliothis virescens
(§3) larvae. Relative activity is defined as the percentage of larvae injected

Heliothis virescens [4] = assay: Relative activity of UV-irradiated compounds in inhibiting adult development of fifth-instar larvae; format: in vivo; details: for Relative activity, inhibition of adult development: relative to non-irradiated counterpart
Method: as §2, §1
Table 4: Relative activity of azadirachtin, 3deacetylaza-dirachtin,
22,23dihydroazadirachtin, 2',3',22,23tetrahydroaza-dirachtin, all of whic
had been exposed for 15, 30, 90, 200, and 400 hours to UV radiation, in
inhibiting the adult development of fifthinstar Heliothis virescens
as §3
relative to the percentage injected with its nonirradiated counterpart

[5] = UV stability in ethanol by reversed phase HPLC; format: physicochemical
Method: Stability of Azadirachtin derivatives was determined as follows:
as §2
Analytical reversed phase HPLC was performed on a phenyl (5μm) column run isocratically with acetonitrile-water (3:7) (Yamasaki et al.) Peaks were detected at 214 nm. The irradiated samples were compared with their corresponding non-UV-irradiated controls by measuring the height of the peak eluting at the appropriate Rt for each irradiated compound relative to each one's non-irradiated control. Results are expressed as the percent of the initial sample concentration remaining relative to the control. Each time point was done in at least triplicate fashion.

[6] = 1.0 microgram injected orally, fifth-instar, non-irradiated
[7] = 1.0 microgram injected orally, % of larvae
[8] = read-out: LC50 (concentration causing 50% mortality)

degradation following 200 h of exposure to UV radiation (in words) [5]: no degradation
UV lability (in words) ([5]; UV irradiation, HPLC): not UV-labile
SMILES: CCC(C)C(=O)OC1CC(OC(C)=O)C2(C(=O)OC)COC3C2C12COC(O)(C(=O)OC)C2C(C)(C12OC1(C)C1CC2OC2OCCC21O)C3O (centres unmarked) [2',3',22,23-tetrahydroazadirachtin]
insecticidal activity (in words) (Heliothis virescens [1]): full activity; also recorded: fully active
EC50 (concentration causing 50% growth inhibition) (Heliothis virescens [1]): 0.08 (0.05-0.13) ppm
Number Adults (Heliothis virescens [2]; [6]): 0 Number
Number Adults Deformed (Heliothis virescens [2]; [6]): 0 Number
Unsuccessful Larvae-Pupae (number) (Heliothis virescens [2]; [6]): 6 Number
Unsuccessful Pupae-Adult (number) (Heliothis virescens [2]; [6]): 1 Number
Adults (%) (Heliothis virescens [2]; [7]): 0%
Adults Deformed (%) (Heliothis virescens [2]; [7]): 0%
Pupae (%) (Heliothis virescens [2]; [7]): 7.4%
Unsuccessful Larvae-Pupae (%) (Heliothis virescens [2]; [7]): 4.4%
Unsuccessful Pupae-Adult (%) (Heliothis virescens [2]; [7]): 0.7%
inhibition of pupation (in words) (Heliothis virescens [2]; non-irradiated, 1.0 μg per os): equally effective
Relative activity, inhibition of pupal development (Heliothis virescens [3]; 15 h UV exposure): 99.4%
Relative activity, inhibition of pupal development (Heliothis virescens [3]; 30 h UV exposure): 103.7%
Relative activity, inhibition of pupal development (Heliothis virescens [3]; 90 h UV exposure): 99.7%
ability to inhibit pupation after UV (in words) (Heliothis virescens [3]; 200 h UV): most active in inhibiting pupation
Relative activity, inhibition of pupal development (Heliothis virescens [3]; 200 h UV exposure): 108.0%
ability to inhibit pupation after UV (in words) (Heliothis virescens [3]; 400 h UV): some loss in activity; also recorded: still more active than the other test compounds
Relative activity, inhibition of pupal development (Heliothis virescens [3]; 400 h UV exposure): 69.1%
Relative activity, inhibition of adult development (Heliothis virescens [4]; 15 h UV exposure): 100.0%
Relative activity, inhibition of adult development (Heliothis virescens [4]; 30 h UV exposure): 100.0%
Relative activity, inhibition of adult development (Heliothis virescens [4]; 90 h UV exposure): 100.0%
Relative activity, inhibition of adult development (Heliothis virescens [4]; 200 h UV exposure): 100.0%
ability to inhibit larvae from reaching the adult stage after UV (in words) (Heliothis virescens [4]; 400 h UV): fully active
Relative activity, inhibition of adult development (Heliothis virescens [4]; 400 h UV exposure): 100.0%

SMILES: C/C=C(\C)C(=O)OC1CC(OC(C)=O)C2(C(=O)OC)COC3C2C12COC(OC(C)=O)(C(=O)OC)C2C(C)(C12OC1(C)C1CC2OC2OC=CC21O)C3O (centres unmarked) [11-O-acetylazadirachtin]
LC50 (Heliothis virescens [1]; [8]): 0.95 µg/mL (≈ 1.25 µM)
EC50 (concentration causing 50% growth inhibition) (Heliothis virescens [1]): 0.18 (0.08-0.40) ppm

SMILES: C/C=C(\C)C(=O)OC1CC(OC(C)=O)C2(C(=O)OC)COC3C2C12COC(OC)(C(=O)OC)C2C(C)(C12OC1(C)C1CC2OC2OC=CC21O)C3O (centres unmarked) [11-O-methylazadirachtin]
LC50 (Heliothis virescens [1]; [8]): 25 µg/mL (≈ 34 µM)
EC50 (concentration causing 50% growth inhibition) (Heliothis virescens [1]): 5.00 (1.54-16.25) ppm

SMILES: COC(=O)C1(O)OCC23C(OC(=O)C(C)(O)C(C)O)CC(OC(C)=O)C4(C(=O)OC)COC(C42)C(O)C(C)(C24OC2(C)C2CC4OC4OCCC42O)C13 (centres unmarked) [2',3'-dihydroxy-2',3',22,23-tetrahydroazadirachtin]
EC50 (concentration causing 50% growth inhibition) (Heliothis virescens [1]): 3.80 (1.95-7.41) ppm

SMILES: CC(=O)C1C2(CO)C(O)CC(O)C3(C)COC(C32)C(O)C1(C)C12OC1(C)C1CC2OC2OC=CC21O (centres unmarked) [Compound 14, decinnamoylmelianolone]
insecticidal activity (in words) (Heliothis virescens [1]): did not show good activity
LC50 (Heliothis virescens [1]): 10 µg/mL (≈ 19.7 µM)
EC50 (Heliothis virescens [1]): 3.20 ppm

SMILES: CC(=O)C1C2(CO)C(OC(=O)/C=C/c3ccccc3)CC(O)C3(C)COC(C32)C(O)C1(C)C12OC1(C)C1CC2OC2OC=CC21O (centres unmarked) [Compound 10, 1-cinnamoylmelianolone]
insecticidal activity (in words) (Heliothis virescens [1]): approximately half that of azadirachtin
LC50 (Heliothis virescens [1]): 1.5 µg/mL (≈ 2.35 µM)
EC50 (Heliothis virescens [1]): 0.12 ppm
